Holding throughout (assay type): cell-based
Experiment [1] concerns BAG1 in a complex with mortalin. Briefly: Co-immunoprecipitation in MCF-7 cells. To be noted: 1 µM, 48 h. As to the method:
(§1) Cells were harvested, washed with PBS, and lysed using NP-40 lysis buffer. Protein A agarose beads (Thermo Fisher Scientific) were mixed with protein G agarose beads (Thermo Fisher Scientific) (4:1) and preincubated overnight at 4°C with anti-p53 or anti-BAG1 or control IgG antibody. Cellular extracts from X15695 treated and untreated cells (1,000 µg) were incubated with antibody-preincubated protein A/G agarose beads for 3 to 4 h at room temperature. The beads with immunoprecipitated proteins were collected at 4°C by centrifugation at 1,000 g for 5 min and washed 4 to 5 times with NP-40 lysis buffer. The immunoprecipitated proteins were eluted by heating in SDS sample buffer for 5 min at 95°C and resolved on SDS-PAGE. Thereafter, they were subjected to Western blot analysis to detect mortalin, BAG1, BAG2, BAG5 and p53. Cellular extracts containing 50 to 70 µg protein from X15695 treated and untreated cells were used as the input control for the targeted proteins.

The test system of experiment [2] is p53/mortalin complex. Briefly: Co-immunoprecipitation in MCF-7 cells. To be noted: 1 µM, 48 h. Here is the method: as §1
Experiment [3] deals with T47D cells. Briefly: FACS cell cycle analysis. To be noted: 1 µM, 48 h, 7-AAD. As to the method:
(§2) LNCaP, LAPC-4, MCF-7 and T47D cells were treated with 1 µM X15695 or DMSO for 48 h. Single cell suspensions (1×10^6 cells) were prepared in 150 µl PBS/10% FBS. Cells were fixed by addition of 5 ml ice-cold ethanol (70%) and over-night incubation at 4°C. Fixed LNCaP and LAPC-4 cells were stained with 20 µM DRAQ5 (5mM stock, Thermo Fisher Scientific) and incubated for 15 min at room temperature. Fixed MCF-7 and T47D cells were resuspended in PBS at concentration of 1×10^6 cells/100 µl and stained by addition of 5 µl of 7-AAD (BD Bioscience, San Diego, CA, USA) for 15 min at room temperature in the dark. Flow cytometry analysis was performed using BD FACSAria (BD Biosciences, Franklin Lakes, NJ, USA). Doublets and dead cells were excluded from the analysis. Flow cytometry data were analyzed using FlowJo 10.8.1 cytometry analysis software (FlowJo, LLC).

Experiment [4] concerns LNCaP cells. Briefly: FACS cell cycle analysis. The following applies: 1 µM, 48 h, DRAQ5. Here is the method:
as §2

The test system of experiment [5] is MCF-7 cells. Briefly: FACS cell cycle analysis. The following applies: 1 µM, 48 h, 7-AAD. As to the method: as §2
For experiment [6], the system named is LAPC-4 cells. Briefly: FACS cell cycle analysis. The following applies: 1 µM, 48 h, DRAQ5. Here is the method: as §2
Experiment [7] has as its system LNCaP and LAPC-4 cells. Briefly: Apoptosis by automated high-throughput microscopy (Hoechst / propidium iodide). The following applies: 48 h. Here is the method:
Apoptosis in LNCaP and LAPC-4 cells was measured using an automated high-throughput microscopy method known in the art. In brief, LNCaP and LAPC4 cells (5×10^3) were seeded in a 96-well plate format. Cells were treated with 10^-9 - 10^-6 M X15695, DMSO or etoposide (250 µM) for 48h. Cells were stained with Hoechst 33342 (0,15 µg/ml) and propidium iodide (PI) (0,25 µg/ml) for 30 min at 37°C. Four brightfield and fluorescence images were acquired from different positions in each well using an automated Olympus IX81 fluorescence microscope (Olympus, Hamburg, Germany). The Hoechst dye was detected at excitation 350 nm and emission 450 nm and PI dye was detected at 488 nm and 590 nm. The total number of cells (all Hoechst-stained nuclei) as well as the number of early apoptotic, late apoptotic, and necrotic cells (combination of Hoechst and PI nuclei intensity) was obtained by analyzing images with the scan^R software (version 2.7.3, Olympus, Hamburg, Germany).

On to `Fc1ccc(-c2cn3cc(C(F)(F)F)cc(Cl)c3n2)cc1` [Compound X15695, 8-Chloro-2-(4-fluorophenyl)-6-(trifluoromethyl)imidazo[1,2-a]pyridine], for which the BAG1-mortalin interaction result in experiment [1] is on record as “indeed decreased this interaction”. Moreover, the p53-mortalin interaction entry in experiment [2] is listed as “decreased this interaction”. In addition, the cell cycle arrest result in experiment [3] is reported as “G2/M cell cycle arrest”; in experiment [4] it was “G1/S phase arrest”; in experiment [5], “G1/S phase arrest”; in experiment [6] it was “G2/M arrest”. For the same molecule, the apoptosis entry in experiment [7] was “No apoptotic effect”.

(Values after patent publication EP4417202A1, “ANTI-CANCER ACTION OF BAG1-SELECTIVE IMIDAZOPYRIDINE COMPOUNDS IN STEROID HORMONE RECEPTOR-POSITIVE BREAST AND PROSTATE CANCER” (Karlsruher Institut für Technologie, priority 2023, dated 2024).)
